Non-standard residues stand in square brackets, D forms with d. Residues, ends and D or L forms follow the SMILES beside them. Groups on a side chain read outwards from the residue. *: point of attachment. dAla(benzothien-2-yl) = N[C@H](Cc1cc2ccccc2s1)C(=O)O; Shikimoyl = O=C(C1=C[C@@H](O)[C@@H](O)[C@H](O)C1)*; dPhe(4-Cl) = N[C@H](Cc1ccc(Cl)cc1)C(=O)O; d2Nal = N[C@H](Cc1ccc2ccccc2c1)C(=O)O; Lys(iPr) = CC(C)NCCCC[C@H](N)C(=O)O; NMeY = CN[C@@H](Cc1ccc(O)cc1)C(=O)O; NMeF = CN[C@@H](Cc1ccccc1)C(=O)O; d3Pal = N[C@H](Cc1cccnc1)C(=O)O; Isonicotinoyl = O=C(c1ccncc1)*; Salicyloyl = O=C(c1ccccc1O)*; Nicotinoyl = O=C(c1cccnc1)*; 2Furoyl = O=C(c1ccco1)*; GABA = NCCCC(=O)O; azaGly = NNC(=O)O; βAla = NCCC(=O)O
Target: T1, LHRH (Rattus norvegicus, UniProt P30969)
T1 construct: endogenous in cells; host or cells: rat pituitary cells (own knowledge of the cited Haviv 1989 method)
T1 sequence (P30969 1-327): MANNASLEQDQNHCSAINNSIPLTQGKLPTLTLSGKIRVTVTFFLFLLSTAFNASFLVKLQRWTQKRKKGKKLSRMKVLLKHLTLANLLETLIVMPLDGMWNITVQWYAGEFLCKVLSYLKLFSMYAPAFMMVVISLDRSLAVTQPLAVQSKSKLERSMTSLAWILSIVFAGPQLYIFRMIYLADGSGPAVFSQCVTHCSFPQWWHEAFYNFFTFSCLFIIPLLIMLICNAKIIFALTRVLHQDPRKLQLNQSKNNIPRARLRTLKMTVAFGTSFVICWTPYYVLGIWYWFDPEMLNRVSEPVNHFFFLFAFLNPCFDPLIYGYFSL
Test: in vitro test for LHRH antagonist potency (pA2)
Type: cell-based
Settings: negative logarithm of the antagonist concentration required to shift the response curve produced by the agonist leuprolide to two-fold higher concentration
Outline: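 Antagonism read against the agonist leuprolide on rat LHRH receptor; value is pA2, the −log of antagonist concentration that doubles the agonist concentration needed for the same response.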

Structure (SMILES) | Kb
CC(C)C[C@H](NC(=O)[C@@H](CCCCNC(=O)C1=C[C@@H](O)[C@@H](O)[C@H](O)C1)NC(=O)[C@H](Cc1ccccc1)N(C)C(=O)[C@H](CO)NC(=O)[C@@H](Cc1cccnc1)NC(=O)[C@@H](Cc1ccc(Cl)cc1)NC(=O)[C@@H](Cc1ccc2ccccc2c1)NC(=O)CNC(=O)C1=C[C@@H](O)[C@@H](O)[C@H](O)C1)C(=O)N[C@@H](CCCNC(=N)N)C(=O)N1CCC[C@H]1C(=O)N[C@H](C)C(N)=O [Example 17, N-Shikimyl-Gly-D2Nal-D4ClPhe-D3Pal-Ser-NMePhe-DLys(Shik)-Leu-Arg-Pro-DAlaNH2] (Shikimoyl-G[d2Nal][dPhe(4-Cl)][d3Pal]S[NMeF][dK](Shikimoyl)LRP[dA]-NH2) | 0.0112 nM
CC(C)C[C@H](NC(=O)[C@@H](CCCCNC(=O)c1cccnc1)NC(=O)[C@H](Cc1ccc(O)cc1)N(C)C(=O)[C@H](CO)NC(=O)[C@@H](Cc1cccnc1)NC(=O)[C@@H](Cc1ccc(Cl)cc1)NC(=O)[C@@H](Cc1ccc2ccccc2c1)NC(=O)CCCNC(=O)c1cccnc1)C(=O)N[C@@H](CCCCNC(C)C)C(=O)N1CCC[C@H]1C(=O)N[C@H](C)C(N)=O [Example 6c, N-Nicotinyl-4Aminobutyryl-D2Nal-D4ClPhe-D3Pal-Ser-NMeTyr-DLys(N-epsilon-Nicotinyl) -Leu-Lys(N-epsilon-Isopropyl)-Pro-DAlaNH2] ({Nicotinoyl-GABA}-[d2Nal][dPhe(4-Cl)][d3Pal]S[NMeY][dK](Nicotinoyl)L[Lys(iPr)]P[dA]-NH2) | 0.0224 nM
CC(C)C[C@H](NC(=O)[C@@H](CCCCNC(=O)c1cccnc1)NC(=O)[C@H](Cc1ccc(O)cc1)N(C)C(=O)[C@H](CO)NC(=O)[C@@H](Cc1cccnc1)NC(=O)[C@@H](Cc1ccc(Cl)cc1)NC(=O)[C@@H](Cc1ccc2ccccc2c1)NC(=O)NNC(=O)c1ccco1)C(=O)N[C@@H](CCCCNC(C)C)C(=O)N1CCC[C@H]1C(=O)N[C@H](C)C(N)=O [Example 37a, N-(2-Furoyl)-Azagly-D2Nal-D4ClPhe-D3Pal-Ser-NMeTyr-DLys(Nic)-Leu-Lys(Isp)- Pro-DAlaNH2] (2Furoyl-[azaGly][d2Nal][dPhe(4-Cl)][d3Pal]S[NMeY][dK](Nicotinoyl)L[Lys(iPr)]P[dA]-NH2) | 0.00631 nM
CC(C)C[C@H](NC(=O)[C@@H](CCCCNC(=O)c1cccnc1)NC(=O)[C@H](Cc1ccc(O)cc1)N(C)C(=O)[C@H](CO)NC(=O)[C@@H](Cc1cc2ccccc2s1)NC(=O)[C@@H](Cc1ccc(Cl)cc1)NC(=O)[C@@H](Cc1ccc2ccccc2c1)NC(=O)CCNC(=O)c1cccnc1)C(=O)N[C@@H](CCCCNC(C)C)C(=O)N1CCC[C@H]1C(=O)N[C@H](C)C(N)=O [Example 36, N-Nicotinyl-3-Aminopropionyl-D2Nal-D4ClPhe-DBal-Ser-NMeTyr-DLys(N-epsilon-Nicotinyl) -Leu-Lys(N-epsilon-Isopropyl)-Pro-DAlaNH2] ({Nicotinoyl-βAla}-[d2Nal][dPhe(4-Cl)][dAla(benzothien-2-yl)]S[NMeY][dK](Nicotinoyl)L[Lys(iPr)]P[dA]-NH2) | 0.0224 nM
CC(C)C[C@H](NC(=O)[C@@H](CCCCNC(=O)C1=C[C@@H](O)[C@@H](O)[C@H](O)C1)NC(=O)[C@H](Cc1ccc(O)cc1)N(C)C(=O)[C@H](CO)NC(=O)[C@@H](Cc1cccnc1)NC(=O)[C@@H](Cc1ccc(Cl)cc1)NC(=O)[C@@H](Cc1ccc2ccccc2c1)NC(=O)CCNC(=O)c1cccnc1)C(=O)N[C@@H](CCCNC(=N)N)C(=O)N1CCC[C@H]1C(=O)N[C@H](C)C(N)=O [Example 27d, N-Nicotinyl-3-Aminopropionyl-D2Nal-D4ClPhe-D3Pal-Ser-NMeTyr-DLys(Shikimyl)-Leu-Arg-Pro-DAlaNH 2] ({Nicotinoyl-βAla}-[d2Nal][dPhe(4-Cl)][d3Pal]S[NMeY][dK](Shikimoyl)LRP[dA]-NH2) | 0.00178 nM
CC(C)C[C@H](NC(=O)[C@H](CCCCNC(=O)c1cccnc1)NC(=O)[C@H](Cc1ccc(O)cc1)N(C)C(=O)[C@H](CO)NC(=O)[C@@H](Cc1cccnc1)NC(=O)[C@@H](Cc1ccc(Cl)cc1)NC(=O)[C@@H](Cc1ccc2ccccc2c1)NC(=O)CNC(=O)[C@@H]1CCCO1)C(=O)N[C@@H](CCCCNC(C)C)C(=O)N1CCC[C@H]1C(=O)N[C@H](C)C(N)=O [Example 85, N (S)-2-Tetrahydrofuroyl-Gly-D2Nal-D4ClPhe-D3Pal-Ser-NMeTyr-Lys(N-epsilon-Nicotinyl) -Leu-Lys(N-epsilon-Isopropyl)-Pro-DAlaNH2] | 0.0112 nM
CC(C)C[C@H](NC(=O)[C@@H](CCCCNC(=O)CNC(=O)c1cccnc1)NC(=O)[C@H](Cc1ccc(O)cc1)N(C)C(=O)[C@H](CO)NC(=O)[C@@H](Cc1cccnc1)NC(=O)[C@@H](Cc1ccc(Cl)cc1)NC(=O)[C@@H](Cc1ccc2ccccc2c1)NC(=O)C1=C[C@@H](O)[C@@H](O)[C@H](O)C1)C(=O)N[C@@H](CCCCNC(C)C)C(=O)N1CCC[C@H]1C(=O)N[C@H](C)C(N)=O [Example 29, N-Shikimyl-D2Nal-D4ClPhe-D3Pal-Ser-NMeTyr-DLys(GlyNic)-Leu-Lys(Isp)-Pro-DAlaNH2] (Shikimoyl-[d2Nal][dPhe(4-Cl)][d3Pal]S[NMeY][dK]([Gly-Nicotinoyl])L[Lys(iPr)]P[dA]-NH2) | 0.0257 nM
CC(C)C[C@H](NC(=O)[C@@H](CCCCNC(=O)C1=C[C@@H](O)[C@@H](O)[C@H](O)C1)NC(=O)[C@H](Cc1ccc(O)cc1)N(C)C(=O)[C@H](CO)NC(=O)[C@@H](Cc1cccnc1)NC(=O)[C@@H](Cc1ccc(Cl)cc1)NC(=O)[C@@H](Cc1ccc2ccccc2c1)NC(=O)CCNC(=O)C1=C[C@@H](O)[C@@H](O)[C@H](O)C1)C(=O)N[C@@H](CCCNC(=N)N)C(=O)N1CCC[C@H]1C(=O)N[C@H](C)C(N)=O [Example 27e, N-Shikimyl-3-Aminopropionyl-D2Nal-D4ClPhe-D3Pal-Ser-NMeTyr-DLys(Shik)-Leu- Arg-Pro-DAlaNH2] ({Shikimoyl-βAla}-[d2Nal][dPhe(4-Cl)][d3Pal]S[NMeY][dK](Shikimoyl)LRP[dA]-NH2) | 0.0347 nM
CC(C)C[C@H](NC(=O)[C@@H](CCCCNC(=O)c1cccnc1)NC(=O)[C@H](Cc1ccc(O)cc1)N(C)C(=O)[C@H](CO)NC(=O)[C@@H](Cc1cccnc1)NC(=O)[C@@H](Cc1ccc(Cl)cc1)NC(=O)[C@@H](Cc1ccc2ccccc2c1)NC(=O)NNC(=O)c1ccccc1O)C(=O)N[C@@H](CCCCNC(C)C)C(=O)N1CCC[C@H]1C(=O)N[C@H](C)C(N)=O [Example 37c, N-Salicyl-Azagly-D2Nal-D4ClPhe-D3Pal-Ser-NMeTyr-DLys(Nic)-Leu-Lys(Isp)-Pro-DAlaNH2] (Salicyloyl-[azaGly][d2Nal][dPhe(4-Cl)][d3Pal]S[NMeY][dK](Nicotinoyl)L[Lys(iPr)]P[dA]-NH2) | 0.0251 nM
CC(C)C[C@H](NC(=O)[C@@H](CCCCNC(=O)c1cccnc1)NC(=O)[C@H](Cc1ccc(O)cc1)N(C)C(=O)[C@H](CO)NC(=O)[C@@H](Cc1cccnc1)NC(=O)[C@@H](Cc1ccc(Cl)cc1)NC(=O)[C@@H](Cc1ccc2ccccc2c1)NC(=O)CNC(=O)c1ccncc1)C(=O)N[C@@H](CCCCNC(C)C)C(=O)N1CCC[C@H]1C(=O)N[C@H](C)C(N)=O [Example 2g, N-Isonicotinyl-Gly-D2Nal-D4ClPhe-D3Pal-Ser-NMeTyr-DLys(N-epsilon-Nicotinyl) -Leu-Lys(N-epsilon-Isopropyl)-Pro-DAlaNH2] (Isonicotinoyl-G[d2Nal][dPhe(4-Cl)][d3Pal]S[NMeY][dK](Nicotinoyl)L[Lys(iPr)]P[dA]-NH2) | 0.00708 nM
CC(C)C[C@H](NC(=O)[C@@H](CCCCNC(=O)c1cccnc1)NC(=O)[C@H](Cc1ccc(O)cc1)N(C)C(=O)[C@H](CO)NC(=O)[C@@H](Cc1cccnc1)NC(=O)[C@H](Cc1ccc(Cl)cc1)NC(=O)[C@@H](Cc1ccc2ccccc2c1)NC(=O)CNC(=O)[C@@H]1CCCO1)C(=O)N[C@@H](CCCCNC(C)C)C(=O)N1CCC[C@H]1C(=O)N[C@H](C)C(N)=O [Example 86, N (S)-2-Tetrahydrofuroyl-Gly-D2Nal-4ClPhe-D3Pal-Ser-NMeTyr-DLys(N-epsilon-Nicotinyl) -Leu-Lys(N-epsilon-Isopropyl)-Pro-DAlaNH2] | 0.141 nM
